How the values were obtained:
[1] = species on record: Mus musculus; experiment: Mouse maximum electroshock induced test seizure test in mice; type: functional
[2] = tested on: Mus musculus; experiment: Antinociceptive activity of tail flick test in mice, when administarted intrathecally; type: functional
[3] = molecular target: Glutamate receptor ionotropic, kainate; experiment: Displacement of [3H]kainate from rat brain cortical membrane Ionotropic glutamate receptor kainate
[4] = molecular target: Glutamate NMDA receptor; experiment: Displacement of [3H]DCKA at N-methyl-D-aspartate glutamate receptor 1; type: protein-complex assay, Rattus norvegicus
[5] = molecular target: T1, Glutamate receptor ionotropic, AMPA (Rattus norvegicus, UniProt P19490+P19491+P19492+P19493)
Description: Binding affinity in rat brain cortical membranes by the displacement of [3H]AMPA at Ionotropic glutamate receptor AMPA

[6] = Partition coefficient determined using octanol versus pH 7.4 buffer; type: physicochemical; conditions: octanol/pH 7.4 buffer
[7] = species on record: Mus musculus; experiment: Anticonvulsant activity tested in mouse; type: functional
[8] = molecular target: T2, Glutamate receptor ionotropic, NMDA 1 (Rattus norvegicus, UniProt P35439); experiment: Binding affinity in rat brain cortical membranes by the displacement of [3H]- DCKA at N-methyl-D-aspartate glutamate receptor 1; type: cell membranes
[9] = molecular target: Glutamate receptor ionotropic, AMPA (Rattus norvegicus) (UniProt P19491+P19492+P19493+P19490); experiment: Inhibition of Ionotropic glutamate receptor AMPA was measured in oocytes expressing rat cerebral cortex poly (A)+ RNA; type: functional, cell-based; conditions: Oocyte
[10] = molecular target: Glutamate receptor ionotropic, NMDA 1 (Rattus norvegicus) (UniProt P35439); experiment: Inhibition of N-methyl-D-aspartate glutamate receptor 1 was measured in oocytes expressing the cloned rat NMDA receptor subunit combination NR1A/2C; type: functional, cell-based; conditions: Oocyte
[11] = tested on: Mus musculus; experiment: Antinociceptive activity in mouse tail flick test, when administered intrathecally; type: functional
[12] = molecular target: T1, Glutamate receptor ionotropic, AMPA; experiment: Inhibition of binding of [3H]AMPA to Ionotropic glutamate receptor AMPA in rat brain membrane; type: cell membranes
[13] = molecular target: T2, Glutamate receptor ionotropic, NMDA 1; experiment: Inhibition of binding of [3H]DCKA to N-methyl-D-aspartate glutamate receptor 1 in rat brain membrane; type: cell membranes
[14] = molecular target: Glutamate receptor ionotropic, NMDA 1 (Rattus norvegicus) (UniProt P35439); experiment: Inhibition of NMDA/glycine receptors was measured in oocytes expressing the cloned rat NMDA receptor subunit combination NR1A/2C; type: functional, cell-based; conditions: Oocyte
[15] = tested on: Rattus norvegicus; experiment: Reduction in cortical infarct volume when 20 mg/kg administarted Iv bolus followed by 14 mg/kg /h IV infusion for 22 hr in rat peramanent middle cerebral artery (MCA); type: functional
[16] = The steady state selectivity index for inhibition of NMDA/glycine receptors was estimated by dividing Kb (AMPA) by Kb (NMDA/glycine)

NS(=O)(=O)c1cccc2c1c([N+](=O)[O-])cc1nc(O)c(O)nc12 [NBQX]
ED50 [1]: 13.1 mg/kg
ED50 [2]: 1.6 ug mouse-1

Oc1nc2cc(Br)cnc2nc1O
IC50 [3]: 16 µM
IC50 [4]: 4.1 µM
IC50 [5]: 32 µM

O=[N+]([O-])c1ccc2nc(O)c(O)nc2c1
IC50 [3]: 15 µM
IC50 [4]: 3.8 µM
IC50 [5]: 7.7 µM

O=c1[nH]c2cc(C(F)(F)F)c[n+]([O-])c2[nH]c1=O
logD [6]: -2.35
IC50 [3]: 7.5 µM
ED50 [7]: 6.3 mg/kg
IC50 [8]: 1.05 µM
IC50 [5]: 5.9 µM

O=C1Nc2cc(Cl)ccc2CC1[N+](=O)[O-] (configuration not stated)
Kb [9]: 9.2 µM
Kb [10]: 6.7 µM

Oc1nc2cc(Cl)cnc2nc1O
IC50 [3]: 22 µM
IC50 [4]: 2.2 µM
IC50 [5]: 38 µM

O=c1[nH]c2cc([N+](=O)[O-])c[n+]([O-])c2[nH]c1=O
logD [6]: -3.31
IC50 [3]: 2.4 µM
ED50 [11]: 2.6 ug mouse-1
ED50 [7]: 4.6 mg/kg
IC50 [8]: 0.69 µM
IC50 [5]: 1.3 µM

CN1CCc2c([N+](=O)[O-])cc3[nH]c(=O)c(=O)[nH]c3c2C1
IC50 [3]: 0.36 µM
ED50 [1]: 0.44 mg/kg
IC50 [4]: 0.37 µM

O=[N+]([O-])c1ccc2cc(NS(=O)(=O)C(F)(F)F)c(O)nc2c1
IC50 [12]: 0.63 µM
IC50 [13]: 0.62 µM

Cc1cnc2nc(O)c(O)nc2c1
IC50 [3]: 49 µM
IC50 [4]: 41 µM
IC50 [5]: 67 µM

O=c1[nH]c2cc(Cl)c(Cl)c([N+](=O)[O-])c2[nH]c1=O [LICOSTINEL]
logD [6]: 0.21
ED50 [7]: 4 mg/kg
IC50 [4]: 0.0059 µM
IC50 [5]: 1.5 µM

[O-][n+]1cc(Cl)cc2nc(O)c(O)nc21
logD [6]: -2.66
Kb [9]: 3.9 µM
IC50 [3]: 5.3 µM
ED50 [7]: 0.82 mg/kg
IC50 [4]: 0.82 µM
Kb [14]: 0.63 µM
Reduction [15]: 67%
Selectivity index [16]: 6.2
IC50 [5]: 9.9 µM

Cc1cc2[nH]c(=O)c(=O)[nH]c2[n+]([O-])c1
logD [6]: -2.91
IC50 [3]: 11.9 µM
ED50 [7]: 0.97 mg/kg
IC50 [8]: 5.9 µM
IC50 [5]: 14 µM

[O-][n+]1cc(Br)cc2nc(O)c(O)nc21
logD [6]: -2.48
IC50 [3]: 3.4 µM
ED50 [7]: 0.87 mg/kg
IC50 [8]: 1 µM
IC50 [5]: 6.7 µM

O=c1[nH]c2ccc(Cl)cc2[nH]c1=O
IC50 [3]: 52 µM
IC50 [5]: 52 µM

Oc1nc2cc(C(F)(F)F)cnc2nc1O
IC50 [3]: 16 µM
IC50 [4]: 1.9 µM
IC50 [5]: 18 µM

O=[N+]([O-])c1cnc2nc(O)c(O)nc2c1
logD [6]: -0.97
Kb [9]: 1.4 µM
IC50 [3]: 4.4 µM
ED50 [7]: 4.5 mg/kg
IC50 [4]: 1.1 µM
Kb [10]: 0.43 µM
IC50 [5]: 3.3 µM

Reference: ChEMBL document CHEMBL1130224, “5-(N-oxyaza)-7-substituted-1,4-dihydroquinoxaline-2,3-diones: novel, systemically active and broad spectrum antagonists for NMDA/glycine, AMPA, and kainate receptors” (J Med Chem, 1997)
